{"source": "BindingDB's records for doi:10.7270/Q2RR233C", "about": "(D3R/Abbott, 2020)", "target": "Tyrosine-protein kinase ABL1 (Homo sapiens, UniProt P00519)", "sequence (P00519 whole entry)": "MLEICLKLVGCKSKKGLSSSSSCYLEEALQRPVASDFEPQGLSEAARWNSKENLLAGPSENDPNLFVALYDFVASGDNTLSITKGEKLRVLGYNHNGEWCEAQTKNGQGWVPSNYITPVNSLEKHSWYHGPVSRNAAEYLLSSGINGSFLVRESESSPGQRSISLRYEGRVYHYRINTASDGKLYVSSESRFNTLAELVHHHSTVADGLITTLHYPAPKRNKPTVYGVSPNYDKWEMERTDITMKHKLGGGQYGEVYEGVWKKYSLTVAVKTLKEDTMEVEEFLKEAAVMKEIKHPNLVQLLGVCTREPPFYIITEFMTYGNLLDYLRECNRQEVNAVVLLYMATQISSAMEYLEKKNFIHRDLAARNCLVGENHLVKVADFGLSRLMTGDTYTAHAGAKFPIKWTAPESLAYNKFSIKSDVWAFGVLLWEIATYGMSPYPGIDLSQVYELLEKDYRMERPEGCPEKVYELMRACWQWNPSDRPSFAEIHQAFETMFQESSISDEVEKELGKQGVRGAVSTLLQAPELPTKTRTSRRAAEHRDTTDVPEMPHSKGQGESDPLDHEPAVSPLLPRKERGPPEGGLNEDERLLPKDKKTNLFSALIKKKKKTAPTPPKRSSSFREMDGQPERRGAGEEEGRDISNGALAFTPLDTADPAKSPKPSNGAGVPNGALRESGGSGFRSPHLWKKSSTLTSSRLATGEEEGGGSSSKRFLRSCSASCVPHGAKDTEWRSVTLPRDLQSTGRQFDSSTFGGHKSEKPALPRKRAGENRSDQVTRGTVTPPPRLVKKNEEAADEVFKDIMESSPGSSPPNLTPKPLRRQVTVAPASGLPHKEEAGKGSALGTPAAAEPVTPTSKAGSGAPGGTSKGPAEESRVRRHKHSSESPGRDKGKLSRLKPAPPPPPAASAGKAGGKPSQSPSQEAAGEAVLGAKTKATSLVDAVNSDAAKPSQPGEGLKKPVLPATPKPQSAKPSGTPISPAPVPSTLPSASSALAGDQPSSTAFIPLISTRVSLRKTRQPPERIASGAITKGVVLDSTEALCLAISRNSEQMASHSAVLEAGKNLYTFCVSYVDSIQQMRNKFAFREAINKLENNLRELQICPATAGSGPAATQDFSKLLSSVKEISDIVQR", "test": "D3R2026", "text": "D3R2026", "note": "Where “and” joins values, the source holds several entries; their conditions need not be identical. Identical values can stand only once."}
{"molecule": "CCOC(=O)N1CCC(n2cnc(-c3ccc(F)cc3)c2-c2ccnc(N)n2)CC1", "note": "[4-[5-(2-Amino-pyrimidin-4-yl)-4-(4-fluoro-phenyl)-imidazol-1-yl]-piperidine-1-carboxylic acid ethyl ester]", "values": [{"measurement": "Kd", "result": "4.8 µM and 10 µM and 2.2 µM and 5.4 µM"}]}
